The values below come from patent US9018383B2, “Acylamino-substituted cyclic carboxylic acid derivatives and their use as pharmaceuticals” (Sanofi, priority 2009, dated 2015).

Where only a bound is given, the exact number is not on record here.

The target of the assay is human Edg-2 receptor (Homo sapiens, UniProt Q92633). In words: Determination of Edg-2 receptor inhibition by FLIPR measurements (LPA-mediated calcium liberation). It counts as cell-based. The conditions noted are these: CHO cells overexpressing human Edg-2 receptor, LPA 100 nM, fluo-4 calcium fluorescence; read-out: Inhibitory concentrations IC50 for inhibition of the Edg-2 receptor. A digest of the protocol: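 CHO cells stably overexpressing human Edg-2, loaded with fluo-4 AM, were pre-incubated ~5 min with compound (≤0.3% DMSO), then stimulated with 100 nM LPA 18:1 in HBSS/HEPES/probenecid, pH 7.5. Peak calcium fluorescence over ~3 min, baseline-corrected, versus DMSO gave % inhibition; IC50 from triplicates.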
human Edg-2 receptor, sequence (Q92633 whole entry): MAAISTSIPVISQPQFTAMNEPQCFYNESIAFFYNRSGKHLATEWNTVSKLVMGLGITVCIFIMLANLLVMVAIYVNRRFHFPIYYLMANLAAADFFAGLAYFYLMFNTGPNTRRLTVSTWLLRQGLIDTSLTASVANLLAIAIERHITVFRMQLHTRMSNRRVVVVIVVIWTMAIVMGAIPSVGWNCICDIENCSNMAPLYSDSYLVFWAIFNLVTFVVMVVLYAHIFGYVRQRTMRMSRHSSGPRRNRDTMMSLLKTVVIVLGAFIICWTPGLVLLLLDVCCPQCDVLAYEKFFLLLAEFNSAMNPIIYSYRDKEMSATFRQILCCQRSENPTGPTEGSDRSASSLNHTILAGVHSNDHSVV

In the case of `CC[C@H]1CC[C@](NC(=O)c2cnc(OCCO)c(-c3cccc(OC(F)(F)F)c3)c2)(C(=O)O)CC1` [Example 416], the IC50 is below 100 nM.
Then `COc1ccc(C(=O)N[C@]2(C(=O)O)CC[C@@H](C)CC2)cc1OCCc1cccc(C)c1` [Example 43, trans-1-[4-Methoxy-3-(2-m-tolyl-ethoxy)-benzoylamino]-4-methyl-cyclohexanecarboxylic acid], with below 100 nM.
Then `COc1ccc(C(=O)NC2(C(=O)O)CCCC(O)CC2)cc1OCCc1cccc(C)c1` (stereo not shown) [Example 53, 4-Hydroxy-1-[4-methoxy-3-(2-m-tolyl-ethoxy)-benzoylamino]-cycloheptanecarboxylic acid], with 100 to 1000 nM; and `CC[C@H]1CC[C@](NC(=O)c2ccc(OC)c(OCCc3cccc(C4COC4)c3)c2)(C(=O)O)CC1` [Example 127, cis-4-Ethyl-1-{4-methoxy-3-[2-(3-oxetan-3-yl-phenyl)-ethoxy]-benzoylamino}-cyclohexanecarboxylic acid], with below 100 nM.
In the case of `COc1ncc(C(=O)NC2(C(=O)O)CCCCCC2)cc1OCCc1cccc(C)c1` [Example 77, 1-{[6-Methoxy-5-(2-m-tolyl-ethoxy)-pyridine-3-carbonyl]-amino}-cycloheptanecarboxylic acid] it was below 100 nM.
`COc1c(F)cc(C(=O)N[C@]2(C(=O)O)CC[C@@H](C)CC2)cc1OCCc1cccc(CCO)c1` [Example 392, trans-1-(3-Fluoro-5-{2-[3-(2-hydroxy-ethyl)-phenyl]-ethoxy}-4-methoxy-benzoylamino)-4-methyl-cyclohexanecarboxylic acid]: the IC50 was below 100 nM.
For `CC[C@H]1CC[C@](NC(=O)c2cnc(OC)c(OCCc3cccc(Cl)c3)c2)(C(=O)O)CC1` [Example 357, cis-1-({5-[2-(3-Chloro-phenyl)-ethoxy]-6-methoxy-pyridine-3-carbonyl}-amino)-4-ethyl-cyclohexanecarboxylic acid], the IC50 is below 100 nM.
Then `COCCOc1ccc(C(=O)N[C@]2(C(=O)O)CC[C@@H](C)CC2)cc1OCCc1cccc(C)c1` [Example 117, trans-1-[4-(2-Methoxy-ethoxy)-3-(2-m-tolyl-ethoxy)-benzoylamino]-4-methyl-cyclohexane-carboxylic acid], with 1000 to 30000 nM.
Then `CC[C@@H]1C[C@]1(NC(=O)c1cnc(OC)c(OCCc2cccc(Cl)c2)c1)C(=O)O` [Example 361, (1R,2R)-1-({5-[2-(3-Chloro-phenyl)-ethoxy]-6-methoxy-pyridine-3-carbonyl}-amino)-2-ethyl-cyclopropanecarboxylic acid], with below 100 nM; and `COc1ccc(C(=O)N[C@@]2(C(=O)O)C[C@@H]3CC[C@H]2O3)cc1OCCc1cccc(C)c1` (racemic) [Example 126, (1R,2S,4S)-2-[4-Methoxy-3-(2-m-tolyl-ethoxy)-benzoylamino]-7-oxa-bicyclo[2.2.1]heptane-2-carboxylic acid and (1S,2R,4R)-2-[4-methoxy-3-(2-m-tolyl-ethoxy)-benzoylamino]-7-oxa-bicyclo[2.2.1]heptane-2-carboxylic acid], with below 100 nM; and `COc1ncc(C(=O)N[C@]2(C(=O)O)CC[C@@H](C)CC2)cc1-c1cc(Cl)cc(C(F)(F)F)c1` [Example 315], with below 100 nM.
Then `COc1ncc(C(=O)N[C@]2(C(=O)O)CC[C@H](C)CC2)cc1-c1cccc(C(F)(F)F)c1` [Example 317], with below 100 nM.
Consider `CC[C@H]1CC[C@](NC(=O)c2cnc(OC)c(-c3cc(F)c(F)c(F)c3)c2)(C(=O)O)CC1` [Example 301], for which the IC50 is below 100 nM.
Then `COc1ccc(C(=O)NC2(C(=O)O)CCC(C(C)(C)C)CC2)cc1OCCc1cccc(C)c1` (stereo not shown) [Example 366], with 100 to 1000 nM; and `COc1ccc(C(=O)NC2(C(=O)O)CCCCCC2)cc1-c1cccc(C#N)c1` [Example 106], with 1000 to 30000 nM; and `CC[C@H]1CC[C@](NC(=O)c2ccc(OC)c(-c3cccc(C4COC4)c3)c2)(C(=O)O)CC1` [Example 458, Cis-4-Ethyl-1-[(6-methoxy-3′-oxetan-3-yl-biphenyl-3-carbonyl)-amino]-cyclohexanecarboxylic acid], with below 100 nM.
In the case of `CC[C@H]1CC[C@](NC(=O)c2ccc(CCCO)c(-c3cccc(C(F)(F)F)c3)c2)(C(=O)O)CC1` [Example 433, cis-4-Ethyl-1-{[6-(3-hydroxy-propyl)-3′-trifluoromethyl-biphenyl-3-carbonyl]-amino}-cyclohexanecarboxylic acid] it was below 100 nM.
In the case of `CC[C@H]1CC[C@](NC(=O)c2cnc(OC)c(OCCc3ccccc3)c2)(C(=O)O)CC1` [Example 358, cis-4-Ethyl-1-[(6-methoxy-5-phenethyloxy-pyridine-3-carbonyl)-amino]-cyclohexanecarboxylic acid] it was below 100 nM.
As for `CC[C@H]1CC[C@](NC(=O)c2cc3c(c(-c4ccc(OC)c(Cl)c4)c2)OC(F)(F)O3)(C(=O)O)CC1` [Example 463, Cis-1-{[7-(3-Chloro-4-methoxy-phenyl)-2,2-difluoro-benzo[1,3]dioxole-5-carbonyl]-amino}-4-ethyl-cyclohexanecarboxylic acid], the IC50 is below 100 nM.
Then `COc1ccc(C(=O)NC2(C(=O)O)CCCCCC2)cc1OCCc1cccc(C)c1` [Example 2, 1-[4-Methoxy-3-(2-m-tolyl-ethoxy)-benzoylamino]-cycloheptanecarboxylic acid], with below 100 nM.
In the case of `COc1ccc(C(=O)NC2(C(=O)O)CCC(C)C2)cc1OCCc1cccc(C)c1` (stereo not shown) [Example 373] it was 100 to 1000 nM.
Then `CC[C@H]1CC[C@@](NC(=O)c2ccc(CO)c(-c3cccc(C(F)(F)F)c3)c2)(C(=O)O)CC1` [Example 431, trans-4-Ethyl-1-[(6-hydroxymethyl-3′-trifluoromethyl-biphenyl-3-carbonyl)-amino]-cyclohexanecarboxylic acid], with 100 to 1000 nM.
Regarding `CC[C@H]1CC[C@](NC(=O)c2cc(F)c(OCCO)c(-c3cccc(OC(F)(F)F)c3)c2)(C(=O)O)CC1` [Example 382], the IC50 was below 100 nM.
In the case of `COc1ccc(C(=O)NC2(C(=O)O)CCCCCCC2)cc1OCCc1cccc(CCO)c1` [Example 108, 1-(3-{2-[3-(2-Hydroxy-ethyl)-phenyl]-ethoxy}-4-methoxy-benzoylamino)-cyclooctanecarboxylic acid] it was below 100 nM; in that of “cis-1-{[5-(3-Chloro-4-methoxy-phenyl)-6-methoxy-pyridine-3-carbonyl]-amino}-4-ethyl-cyclohexanecarboxylic acid [Example 305]”, below 100 nM.
In the case of `COc1ccc(C(=O)NC2(C(=O)O)CCOCC2)cc1OCCc1cccc(C)c1` [Example 37] it was 1000 to 30000 nM; in that of `COc1ncc(C(=O)N[C@]2(C(=O)O)CC[C@H](C)CC2)cc1OCCc1cc(C)ccc1C` [Example 86, cis-1-({5-[2-(2,5-Dimethyl-phenyl)-ethoxy]-6-methoxy-pyridine-3-carbonyl}-amino)-4-methyl-cyclohexanecarboxylic acid], 1000 to 30000 nM; in that of `COc1ccc(C(=O)NC2(C(=O)O)CCSCC2)cc1OCCc1cccc(C)c1` [Example 36], 100 to 1000 nM.
In the case of `Cc1cccc(CCOc2cc(C(=O)N[C@]3(C(=O)O)CC[C@@H](C)CC3)ccc2OCCO)c1` [Example 122, trans-1-[4-(2-Hydroxy-ethoxy)-3-(2-m-tolyl-ethoxy)-benzoylamino]-4-methyl-cyclohexanecarboxylic acid] it was below 100 nM; in that of `COc1ncc(C(=O)N[C@]2(C(=O)O)CC[C@H](C)CC2)cc1-c1cccc(Cl)c1Cl` [Example 310], below 100 nM.
Consider `COc1ccc(C(=O)NC2(C(=O)O)CCCCCC2)cc1OCCc1ccccc1` [Example 8], for which the IC50 was below 100 nM.
On to `COc1ccc(C(=O)NC2(C(=O)O)CCC2)cc1OCCc1cccc(C)c1` [Example 34], for which the IC50 fell in the range of 1000 to 30000 nM.
For the molecule `CC[C@H]1CC[C@](NC(=O)c2cc(OCCc3cccc(C)c3)c3c(c2)OC(F)(F)O3)(C(=O)O)CC1` [Example 456, Cis-1-{[2,2-Difluoro-7-(2-m-tolyl-ethoxy)-benzo[1,3]dioxole-5-carbonyl]-amino}-4-ethyl-cyclohexanecarboxylic acid], the IC50 is below 100 nM.
Then `COc1ccc(C(=O)NC2(C(=O)O)CCCCCC2)cc1OCCc1cc(F)ccc1F` [Example 20], with below 100 nM; and `CC[C@H]1CC[C@](NC(=O)c2cnc(O)c(-c3cccc(C(F)(F)F)c3)c2)(C(=O)O)CC1` [Example 426, cis-4-Ethyl-1-{[6-hydroxy-5-(3-trifluoromethyl-phenyl)-pyridine-3-carbonyl]-amino}-cyclohexanecarboxylic acid], with 100 to 1000 nM.
In the case of `CC[C@H]1CC[C@@](NC(=O)c2ccc(OC)c(-c3cccc(C(F)(F)F)c3)c2)(C(=O)O)CC1` [Example 332] it was below 100 nM; in that of `COc1ncc(C(=O)N[C@]2(C(=O)O)CC[C@H](C)CC2)cc1OCCc1cccc(Cl)c1` [Example 356, cis-1-({5-[2-(3-Chloro-phenyl)-ethoxy]-6-methoxy-pyridine-3-carbonyl}-amino)-4-methyl-cyclohexanecarboxylic acid], below 100 nM.
Then `CC[C@H]1CC[C@](NC(=O)c2ccc(OC)c(-c3cccc(C(F)(F)F)c3)c2)(C(=O)O)CC1` [Example 331], with below 100 nM; and `COc1ccc(C(=O)NC2(C(=O)O)CCCCCC2)cc1OCCc1cc(C)ccc1F` [Example 1, 1-{3-[2-(2-Fluoro-5-methyl-phenyl)-ethoxy]-4-methoxy-benzoylamino}-cycloheptanecarboxylic acid], with 100 to 1000 nM.
Turning to `COc1ccc(C(=O)N[C@]2(C(=O)O)CC[C@@H](C)CC2)cc1-c1cccc(OC(F)(F)F)c1` [Example 330], the IC50 lay within 1000 to 30000 nM.
